Columns and labels:
platelet adhesion = conditions: long-term aspirin therapy; cited from earlier work
platelets = assay: Platelet Reactivity Test (PRT), time to platelet mass formation in whole blood of volunteers; type: in vivo, human; conditions: after taking aspirin, most volunteers; without aspirin the test concludes in less than 100 seconds
Protocol: The PRT test is used to activate platelet gel formations using a small (20 microliter) whole blood sample to help identify proper platelet function in the absence of platelet drug therapy and to identify inhibited platelet function in the presence of platelet drug therapy. The test is performed by running a small quantity of blood through a channel restriction that will induce the formation of platelet gels and trap them in a focused area similar to the way platelets are activated and focused in the body. Cartridge 150 has capillary tube inlet 160 that can receive a capillary tube filled with blood. A capillary tube filled with blood can be attached to capillary tube port 200. Conduit 230 leads from capillary tube port 200 to junction 270 and junction 270 splits into conduit 250 and passageways 240, 260. Conduit 250 and passageways 240, 260 include overflow wells 280. Conduit 250 and passageways 240, 260 lead to ports 180, 170, 190, respectively. […] In a preferred embodiment, the cartridge 150 has a bar code that is read by the instrument 400. […] The instrument 400 will report the average of the platelet reactivity times determined from the blood in passageways 240 and 260. […] If the two platelet reactivity times determined from the blood in passageways 240 and 260 are greatly different, the instrument will indicate that the test is invalid. […]

For `CC(=O)Oc1ccccc1C(=O)O` [aspirin], the “individuals who do not achieve inhibition of platelet adhesion” value (platelet adhesion) is given as “up to 30%” and the “PRT (platelet reactivity time)” value (platelets) is given as “greater than 150 seconds”.

Source: patent publication US20100099130A1, “METHODS AND DEVICES FOR MONITORING PLATELET FUNCTION” (PLACOR INC., priority 2006, published 2010)
